Results taken from ChEMBL document CHEMBL4196004, “Discovery of novel mifepristone derivatives via suppressing KLF5 expression for the treatment of triple-negative breast cancer” (Eur J Med Chem, 2018).
Active and inactive are the calls of the source. The rule behind the calls is not given here.

Columns and labels:
[1] = system: SUM149PT; assay: Antiproliferative activity against human SUM149PT cells after 48 hrs by SRB assay; assay type: functional, cell-based
[2] = system: HCC1937; assay: Antiproliferative activity against human HCC1937 cells after 48 hrs by SRB assay; assay type: functional, cell-based; settings: HCC1937, 48 h
[3] = system: SUM149PT; assay: Inhibition of KLF5 expression levels in human SUM149PT cells after 24 hrs by Western blot analysis; assay type: functional, cell-based
[4] = system: HCC1937; assay: Inhibition of KLF5 expression levels in human HCC1937 cells after 24 hrs by Western blot analysis; assay type: functional, cell-based
[5] = system: SUM149PT; assay: Induction of PARP cleavage in human SUM149PT cells after 24 hrs by Western blot analysis; assay type: functional, cell-based
[6] = system: HCC1937; assay: Induction of PARP cleavage in human HCC1937 cells after 24 hrs by Western blot analysis; assay type: functional, cell-based
[7] = Cmax in Sprague-Dawley rat at 30 mg/kg administered via oral gavage by HPLC analysis; assay type: ADME, organism-based; set-up: dose 30 mg/kg, route oral; settings: in vivo
[8] = Elimination half life in Sprague-Dawley rat at 30 mg/kg administered via oral gavage by HPLC analysis; assay type: ADME, organism-based; settings: in vivo, read-out: beta t1/2 (converted)
[9] = Tmax in Sprague-Dawley rat at 30 mg/kg administered via oral gavage by HPLC analysis; assay type: ADME, organism-based; settings: in vivo
[10] = system: Rattus norvegicus; assay: AUC (0 to t) in Sprague-Dawley rat at 30 mg/kg administered via oral gavage by HPLC analysis; assay type: ADME, organism-based; settings: in vivo
[11] = system: Rattus norvegicus; assay: AUC (0 to infinity) in Sprague-Dawley rat at 30 mg/kg administered via oral gavage by HPLC analysis; assay type: ADME, organism-based; set-up: dose 30 mg/kg, route oral, time infinity; settings: in vivo
[12] = system: Homo sapiens; assay: Antitumor activity against human UM1 cells implanted in Balb/C nude mouse at 1 mg, ip qd for 4 weeks; assay type: functional, organism-based
[13] = system: Mus musculus; assay: Toxicity in Balb/C nude mouse implanted with human UM1 cells assessed as loss of body weight at 1 mg, ip qd for 4 weeks; assay type: organism-based; settings: in vivo, 672 h
[14] = system: SUM149PT; assay: Cell cycle arrest in human SUM149PT cells assessed as increase in cells at G1 phase at 20 uM after 24 hrs by propidium iodide staining-based flow cytometric analysis; assay type: functional
[15] = system: SUM149PT; assay: Cell cycle arrest in human SUM149PT cells assessed as decrease in cells at S phase at 20 uM after 24 hrs by propidium iodide staining-based flow cytometric analysis; assay type: functional
[16] = system: SUM149PT; assay: Cell cycle arrest in human SUM149PT cells assessed as increase in cells at G1 phase after 24 hrs by propidium iodide staining-based flow cytometric analysis; assay type: functional
[17] = system: SUM149PT; assay: Cell cycle arrest in human SUM149PT cells assessed as decrease in cells at S phase at 5 to 10 uM after 24 hrs by propidium iodide staining-based flow cytometric analysis; assay type: functional
[18] = system: Mus musculus; assay: Acute toxicity in KM mouse assessed as loss of body weight at 400 mg/kg, po administered as single dose and measured every 3 days; assay type: organism-based; settings: in vivo, 72 h
[19] = system: Mus musculus; assay: Acute toxicity in KM mouse assessed as behaviour change at 400 mg/kg, po administered as single dose; assay type: organism-based; settings: in vivo

Row | SMILES | IC50 [1] | IC50 [2] | other results
1 | CC#C[C@]1(O)CC[C@H]2[C@@H]3CCC4=CC(=O)CCC4=C3[C@@H](c3ccc(N(C)C(=O)c4cccc(Cl)c4)cc3)C[C@@]21C | 14.3 µM | 10.6 µM | 
2 | CC#C[C@]1(O)CC[C@H]2[C@@H]3CCC4=CC(=O)CCC4=C3[C@@H](c3ccc(N(C)S(=O)(=O)c4ccccc4)cc3)C[C@@]21C | > 20 µM | > 20 µM | 
3 | CC#C[C@]1(O)CC[C@H]2[C@@H]3CCC4=CC(=O)CCC4=C3[C@@H](c3ccc(N(C)C(=O)c4ccc(C)c(C)c4)cc3)C[C@@]21C | 5.6 µM | 6.1 µM | 
4 | CC#C[C@]1(O)CC[C@H]2[C@@H]3CCC4=CC(=O)CCC4=C3[C@@H](c3ccc(N(C)C(=O)c4cncs4)cc3)C[C@@]21C | > 20 µM |  | 
5 | CC#C[C@]1(O)CC[C@H]2[C@@H]3CCC4=CC(=O)CCC4=C3[C@@H](c3ccc(N(C)C(=O)c4ccc(C(C)(C)C)cc4)cc3)C[C@@]21C | 3.5 µM | 4.2 µM | 
6 | CC#C[C@]1(O)CC[C@H]2[C@@H]3CCC4=CC(=O)CCC4=C3[C@@H](c3ccc(N(C)C(=O)c4ccc(OC)cc4)cc3)C[C@@]21C | 12 µM |  | 
7 | COc1cccc2c1C(=O)c1c(O)c3c(c(O)c1C2=O)C[C@@](O)(C(=O)CO)C[C@@H]3O[C@H]1C[C@H](N)[C@H](O)[C@H](C)O1 [DOXORUBICIN] | 0.36 µM | 0.44 µM | 
8 | CC#C[C@]1(O)CC[C@H]2[C@@H]3CCC4=CC(=O)CCC4=C3[C@@H](c3ccc(N(C)C(=O)c4ccc5ccccc5c4)cc3)C[C@@]21C | 5 µM | 6.1 µM | 
9 | CC#C[C@]1(O)CC[C@H]2[C@@H]3CCC4=CC(=O)CCC4=C3[C@@H](c3ccc(N(C)C(=O)c4ccc(C)cc4)cc3)C[C@@]21C | 5 µM | 9.1 µM | 
10 | CC#C[C@]1(O)CC[C@H]2[C@@H]3CCC4=CC(=O)CCC4=C3[C@@H](c3ccc(N(C)C(=O)c4ccc(C(C)C)cc4)cc3)C[C@@]21C | 4.2 µM | 4.2 µM | 
11 | CC#C[C@]1(O)CC[C@H]2[C@@H]3CCC4=CC(=O)CCC4=C3[C@@H](c3ccc(N(C)C(=O)c4ccc(OC)c(Cl)c4)cc3)C[C@@]21C | > 20 µM |  | 
12 | CC#C[C@]1(O)CC[C@H]2[C@@H]3CCC4=CC(=O)CCC4=C3[C@@H](c3ccc(N(C)C(=O)c4ccc(Cl)c(C(F)(F)F)c4)cc3)C[C@@]21C | > 20 µM |  | 
13 | CC#C[C@]1(O)CC[C@H]2[C@@H]3CCC4=CC(=O)CCC4=C3[C@@H](c3ccc(N(C)C(C)=O)cc3)C[C@@]21C | > 20 µM | > 20 µM | 
14 | CC#C[C@]1(O)CC[C@H]2[C@@H]3CCC4=CC(=O)CCC4=C3[C@@H](c3ccc(N(C)C(=O)c4nccs4)cc3)C[C@@]21C | > 20 µM |  | 
15 | CC#C[C@]1(O)CC[C@H]2[C@@H]3CCC4=CC(=O)CCC4=C3[C@@H](c3ccc(N(C)C(=O)c4ccccc4OC)cc3)C[C@@]21C | > 20 µM |  | 
16 | CC#C[C@]1(O)CC[C@H]2[C@@H]3CCC4=CC(=O)CCC4=C3[C@@H](c3ccc(N(C)C(=O)c4ccc(Cl)cc4)cc3)C[C@@]21C | 16.2 µM | 9.7 µM | 
17 | CC#C[C@]1(O)CC[C@H]2[C@@H]3CCC4=CC(=O)CCC4=C3[C@@H](c3ccc(N(C)C(=O)c4cccc(OC)c4)cc3)C[C@@]21C | 18 µM |  | 
18 | CC#C[C@]1(O)CC[C@H]2[C@@H]3CCC4=CC(=O)CCC4=C3[C@@H](c3ccc(NC)cc3)C[C@@]21C [DESMETHYLMIFEPRISTONE] | > 20 µM | > 20 µM | 

Row | SMILES | IC50 [1] | IC50 [2] | other results
19 | CC#C[C@]1(O)CC[C@H]2[C@@H]3CCC4=CC(=O)CCC4=C3[C@@H](c3ccc(N(C)C(=O)c4ccc(-c5ccccc5)cc4)cc3)C[C@@]21C | 16 µM | > 20 µM | 
20 | CC#C[C@]1(O)CC[C@H]2[C@@H]3CCC4=CC(=O)CCC4=C3[C@@H](c3ccc(N(C)C(=O)c4cnccn4)cc3)C[C@@]21C | > 20 µM |  | 
21 | CC#C[C@]1(O)CC[C@H]2[C@@H]3CCC4=CC(=O)CCC4=C3[C@@H](c3ccc(N(C)S(=O)(=O)c4ccc(C)cc4)cc3)C[C@@]21C | > 20 µM | > 20 µM | 
22 | CC#C[C@]1(O)CC[C@H]2[C@@H]3CCC4=CC(=O)CCC4=C3[C@@H](c3ccc(N(C)C(=O)c4ccc(F)c(Cl)c4)cc3)C[C@@]21C | 9 µM |  | 
23 | CC#C[C@]1(O)CC[C@H]2[C@@H]3CCC4=CC(=O)CCC4=C3[C@@H](c3ccc(N(C)C(=O)c4cccs4)cc3)C[C@@]21C | 12.5 µM |  | 
24 | CC#C[C@]1(O)CC[C@H]2[C@@H]3CCC4=CC(=O)CCC4=C3[C@@H](c3ccc(N(C)C)cc3)C[C@@]21C [MIFEPRISTONE] | 15 µM | > 20 µM | inhibition [3]: Dose-dependent effect; inhibition [4]: Dose-dependent effect; Activity [5]: Dose-dependent effect; Activity [6]: Dose-dependent effect; Cmax [7]: 360 ng/mL; half-life [8]: 181 min; Tmax [9]: 3.38 h; AUCt [10]: 1.97 mg/L/h; AUC [11]: 2.42 mg·h/L; Activity [12]: Active; Activity [13]: Non-Toxic; Activity [14]: inactive; Activity [15]: Active
25 | CC#C[C@]1(O)CC[C@H]2[C@@H]3CCC4=CC(=O)CCC4=C3[C@@H](c3ccc(N(C)C(=O)c4ccc(Cl)c(Cl)c4)cc3)C[C@@]21C | 3.6 µM | 7.9 µM | Activity [16]: Dose-dependent effect; Activity [17]: Active; inhibition [3]: Dose-dependent effect; inhibition [4]: Dose-dependent effect; Activity [5]: Dose-dependent effect; Activity [6]: Dose-dependent effect; Cmax [7]: 550 ng/mL; half-life [8]: 173 min; Tmax [9]: 2.17 h; AUCt [10]: 2.45 mg/L/h; AUC [11]: 2.91 mg·h/L; Activity [12]: Active; Activity [13]: Non-Toxic; Activity [18]: Non-Toxic; Activity [19]: Non-Toxic
26 | CC#C[C@]1(O)CC[C@H]2[C@@H]3CCC4=CC(=O)CCC4=C3[C@@H](c3ccc(N(C)C(=O)Cc4ccccc4)cc3)C[C@@]21C | 7 µM | 9 µM | 
27 | CC#C[C@]1(O)CC[C@H]2[C@@H]3CCC4=CC(=O)CCC4=C3[C@@H](c3ccc(N(C)C(=O)c4ccc(Cl)c(F)c4)cc3)C[C@@]21C | > 20 µM |  | 
28 | CC#C[C@]1(O)CC[C@H]2[C@@H]3CCC4=CC(=O)CCC4=C3[C@@H](c3ccc(N(C)C(=O)c4cc(Cl)ccc4F)cc3)C[C@@]21C | > 20 µM |  | 
29 | CC#C[C@]1(O)CC[C@H]2[C@@H]3CCC4=CC(=O)CCC4=C3[C@@H](c3ccc(N(C)C(=O)c4cccc(C)c4)cc3)C[C@@]21C | 5 µM | 9 µM | 
30 | CC#C[C@]1(O)CC[C@H]2[C@@H]3CCC4=CC(=O)CCC4=C3[C@@H](c3ccc(N(C)C(=O)c4cc(Cl)cc(Cl)c4)cc3)C[C@@]21C | 9 µM |  | 
31 | CC#C[C@]1(O)CC[C@H]2[C@@H]3CCC4=CC(=O)CCC4=C3[C@@H](c3ccc(N(C)C(=O)c4ccc(C)c(Cl)c4)cc3)C[C@@]21C | 4.7 µM |  | 
32 | CC#C[C@]1(O)CC[C@H]2[C@@H]3CCC4=CC(=O)CCC4=C3[C@@H](c3ccc(N(C)C(=O)c4ccccc4Cl)cc3)C[C@@]21C | > 20 µM | 17.4 µM | 
33 | CC#C[C@]1(O)CC[C@H]2[C@@H]3CCC4=CC(=O)CCC4=C3[C@@H](c3ccc(N(C)C(=O)c4ccccn4)cc3)C[C@@]21C | > 20 µM | > 20 µM | 
34 | CC#C[C@]1(O)CC[C@H]2[C@@H]3CCC4=CC(=O)CCC4=C3[C@@H](c3ccc(N(C)C(=O)c4ccccc4)cc3)C[C@@]21C | 10.5 µM | 14.7 µM | 
35 | CC#C[C@]1(O)CC[C@H]2[C@@H]3CCC4=CC(=O)CCC4=C3[C@@H](c3ccc(N(C)C(=O)c4ccncc4)cc3)C[C@@]21C | > 20 µM | > 20 µM | 
